{"source": "PubChem BioAssay AID488870", "about": "(Broad Institute, 2010)", "note": "Active and inactive are the calls of the source.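 Rule for the calls: active = a drop in nitrite signal whose fitted half-maximal concentration is at most ten times the top tested dose; inconclusive = flat fit with 30 to 70% inhibition, or poor curve fit; inactive = the rest.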"}
{"test_system": "not listed separately", "assay": "suppression of NO production in INS-1E cells – cell-based, Griess absorbance, dry powder, set 3, dose response (AID 488870)", "settings": "INS-1E cytokine-induced nitrite, Griess absorbance, 48 h; at 19.5 µM (top of the series)"}
{"smiles": "C[C@@H]1CN([C@@H](C)CO)C(=O)c2cccc(NC(=O)Nc3cccc4ccccc34)c2O[C@H]1CN(C)S(=O)(=O)c1cn(C)cn1", "activity change, negative = inhibition": "-10.7% (inactive)"}
{"smiles": "COc1ccc(S(=O)(=O)N(C)C[C@H]2Oc3c(NC(=O)Nc4cccc5ccccc45)cccc3C(=O)N([C@@H](C)CO)C[C@@H]2C)cc1", "activity change, negative = inhibition": "-9.04% (inactive)"}
{"smiles": "COc1ccc(S(=O)(=O)N(C)C[C@@H]2Oc3c(NC(=O)Nc4cccc5ccccc45)cccc3C(=O)N([C@@H](C)CO)C[C@H]2C)cc1OC", "activity change, negative = inhibition": "-18.5% (inactive)"}
{"smiles": "C[C@@H]1CN([C@H](C)CO)C(=O)c2cccc(NC(=O)Nc3ccccc3)c2O[C@H]1CN(C)S(=O)(=O)c1ccc(Cl)cc1", "activity change, negative = inhibition": "4.79% (inactive)"}
{"smiles": "COc1ccc(S(=O)(=O)N(C)C[C@@H]2Oc3ccc(NC(=O)Nc4cccc5ccccc45)cc3C(=O)N([C@@H](C)CO)C[C@H]2C)cc1", "activity change, negative = inhibition": "-15.4% (inactive)"}
{"smiles": "C[C@@H]1CN([C@@H](C)CO)C(=O)c2cccc(NC(=O)Nc3ccc(F)cc3)c2O[C@H]1CN(C)S(=O)(=O)c1ccc(F)cc1", "activity change, negative = inhibition": "-6.48% (inactive)"}
{"smiles": "COc1ccc(S(=O)(=O)N(C)C[C@@H]2Oc3c(NS(=O)(=O)c4cn(C)cn4)cccc3C(=O)N([C@@H](C)CO)C[C@H]2C)cc1", "activity change, negative = inhibition": "4.99% (inactive)"}
{"smiles": "C[C@@H]1CN([C@@H](C)CO)C(=O)c2cccc(NC(=O)Nc3cccc4ccccc34)c2O[C@H]1CN(C)S(=O)(=O)c1ccc(Cl)cc1", "activity change, negative = inhibition": "-22.9% (inactive)"}
{"smiles": "C[C@@H]1CN([C@@H](C)CO)C(=O)c2cccc(NC(=O)Nc3cccc4ccccc34)c2O[C@H]1CN(C)S(=O)(=O)c1ccc2c(c1)oc(=O)n2C", "activity change, negative = inhibition": "-7.4% (inactive)"}
{"smiles": "COc1ccc(S(=O)(=O)N(C)C[C@@H]2Oc3c(NC(=O)Nc4ccc5c(c4)OCO5)cccc3C(=O)N([C@@H](C)CO)C[C@H]2C)cc1", "activity change, negative = inhibition": "-8.76% (inactive)"}
{"smiles": "COc1ccc(NC(=O)Nc2cccc3c2O[C@@H](CN(C)S(=O)(=O)c2ccc(OC)cc2)[C@H](C)CN([C@@H](C)CO)C3=O)cc1", "activity change, negative = inhibition": "-3.9% (inactive)"}
{"smiles": "COc1ccc(S(=O)(=O)N(C)C[C@@H]2Oc3c(NC(=O)C4CC4)cccc3C(=O)N([C@@H](C)CO)C[C@H]2C)cc1", "activity change, negative = inhibition": "-4.99% (inactive)"}
{"test_system": "INS-1E cytokine-induced nitrite, Griess absorbance, 48 h", "assay": "suppression of NO production in INS-1E cells – cell-based, Griess absorbance, dry powder, set 3, dose response (AID 488870)", "settings": "not given"}
{"smiles": "Cc1ccc(S(=O)(=O)N(C)C[C@H]2Oc3c(NC(=O)Nc4cccc5ccccc45)cccc3C(=O)N([C@@H](C)CO)C[C@@H]2C)cc1", "AC50": "> 19.5 µM (inactive)"}
{"smiles": "C[C@@H]1CN([C@H](C)CO)C(=O)c2cccc(NC(=O)Nc3ccccc3)c2O[C@H]1CN(C)S(=O)(=O)c1ccc(F)cc1", "AC50": "> 19.5 µM (inactive)"}
